Reference: patent publication US5707615A, “Method of treating HIV infections with anti-viral formulations” (Merrell Pharmaceuticals Inc., priority 1997, dated 1998)
Like-named read-outs stand apart in the source and are kept apart here.

Tests used:
HIV-I (RF) = test: Effect of treating HIV-I (RF)-infected cells (C8166) 24 hours post-infection (Example V, Table VII); details: for P24 DAY 6 p.i. / SYNCYTIA/WELL DAY 2 / SYNCYTIA/WELL DAY 3: 10 μM; for activity at 10 µM: Human immunodeficiency virus 1, C8166, 144 h, read-out: P24 % CONTROL, 10 μM
Method: Cells were infected with strain RF or GB8 for 24 hours at 37° C. at a multiplicity of infection of 0.001. Cells were washed three times to remove residual virus and then replated into fresh growth medium. Cells were then treated for 24 and 48 hours post-infection (p.i.) with the indicated concentrations of test compounds. Syncytia and P24 antigen levels were determined on the indicated days p.i. by methods described before.

HIV (Strain RF) = test: Anti-HIV activity in C8166 cells infected with HIV strain RF: syncytia and p24 (Example VI); format: cell-based; details: for p24 % of VIRUS CONTROL: 2880 min
Method: Protocol: C8166 cells were infected with HIV (Strain RF) for 1 hour at room temperature to give a multiplicity of infection of approximately 0.01 infectious units per cell.

HIV (Strain GB8) = test: JM cells infected with HIV strain GB8: syncytia and p24 (Example VII); format: cell-based; details: for p24 3 days p.i.: supernatant screened at 1/100 dilution
Method: JM cells were infected with HIV (Strain GB8) to give approximately 200 syncytia/1×10^5 cells after 3 days; virus infection was for 1 hour at room temperature.

| Compound | P24 DAY 6 p.i. (HIV-I (RF); addition 0 hours p.i.) [pg/mL] | SYNCYTIA/WELL DAY 2 (HIV-I (RF); addition 0 hours p.i.) | SYNCYTIA/WELL DAY 3 (HIV-I (RF); addition 0 hours p.i.) | P24 DAY 6 p.i. (HIV-I (RF); addition 24 hours p.i.) [pg/mL] | activity at 10 µM (HIV-I (RF); addition 0 hours p.i.) [%] | MEAN SYNCYTIA 3 days p.i. (HIV (Strain GB8); 25 μg/ml) | p24 3 days p.i. (HIV (Strain GB8); 25 μg/ml) | MEAN SYNCYTIA 3 days p.i. (HIV (Strain GB8); 50 μg/ml) | p24 3 days p.i. (HIV (Strain GB8); 50 μg/ml) | MEAN SYNCYTIA 3 days p.i. (HIV (Strain GB8); 100 μg/ml) | p24 3 days p.i. (HIV (Strain GB8); 100 μg/ml) | MEAN SYNCYTIA 3 days p.i. (HIV (Strain GB8); 200 μg/ml) | p24 Day 2 (HIV (Strain RF); 12 μg/ml) | p24 % of VIRUS CONTROL (HIV (Strain RF); 12 μg/ml) [%] | p24 Day 2 (HIV (Strain RF); 25 μg/ml) | p24 % of VIRUS CONTROL (HIV (Strain RF); 25 μg/ml) [%] | p24 Day 2 (HIV (Strain RF); 50 μg/ml) | p24 % of VIRUS CONTROL (HIV (Strain RF); 50 μg/ml) [%] | p24 Day 2 (HIV (Strain RF); 100 μg/ml) | p24 % of VIRUS CONTROL (HIV (Strain RF); 100 μg/ml) [%] | further results |
| --- | --- | --- | --- | --- | --- | --- | --- | --- | --- | --- | --- | --- | --- | --- | --- | --- | --- | --- | --- | --- | --- |
| Cc1cn([C@H]2C[C@H](N=[N+]=[N-])[C@@H](CO)O2)c(=O)[nH]c1=O [AZT, reference compound] | 10000 | 0 | 0 | 44000 | 1.1 |  |  |  |  |  |  |  |  |  |  |  |  |  |  |  | activity at 10 µM (HIV-I (RF); addition 24 hours p.i.): 4.6%; p24 Day 2 (HIV (Strain RF); 0.1 μg/ml): neg; SYNCYTIA Day 2 (HIV (Strain RF); 1 μg/ml): 0; p24 Day 2 (HIV (Strain RF); 1 μg/ml): neg; activity at 0.1 µg/mL (HIV (Strain RF); Human immunodeficiency virus 1, C8166, 48 h, 0.1 μg/ml, read-out: p24 % of VIRUS CONTROL): 0%; activity at 1 µg/mL (HIV (Strain RF); Human immunodeficiency virus 1, C8166, 48 h, 1 μg/ml, read-out: p24 % of VIRUS CONTROL): 0% |
| Nc1ccn([C@H]2CC[C@@H](CO)O2)c(=O)n1 [ddC, reference compound] | 13000 | 0 | 0 | 420000 | 1.4 |  |  |  |  |  |  |  |  |  |  |  |  |  |  |  | MEAN SYNCYTIA 3 days p.i. (HIV (Strain GB8); 0.01 μg/ml): 80; p24 3 days p.i. (HIV (Strain GB8); 0.01 μg/ml): 5400 pg/mL; MEAN SYNCYTIA 3 days p.i. (HIV (Strain GB8); 0.1 μg/ml): 2; p24 3 days p.i. (HIV (Strain GB8); 0.1 μg/ml): neg; MEAN SYNCYTIA 3 days p.i. (HIV (Strain GB8); 1 μg/ml): 0; p24 3 days p.i. (HIV (Strain GB8); 1 μg/ml): neg; MEAN SYNCYTIA 3 days p.i. (HIV (Strain GB8); 10 μg/ml): 0; p24 3 days p.i. (HIV (Strain GB8); 10 μg/ml): neg; activity at 10 µM (HIV-I (RF); addition 24 hours p.i.): 44.2% |
| poly[oxy(2,5-disulfo-1,4-phenylene)oxycarbonyl-1,4-phenylenecarbonyl]- [Example 7] |  |  |  |  |  | 43 | neg | 24 | neg | 7 | neg | 0 | 3140 pg/mL | 98 | 1450 pg/mL | 45 | 870 pg/mL | 27 | neg | 0 | p24 3 days p.i. (HIV (Strain GB8); 200 μg/ml): neg |
| poly[oxy(2,5-disulfo-1,4-phenylene)oxycarbonyl], alpha-[(4-methylphenoxy)carbonyl]-omega-(4-methylphenoxy)- [Example 4] |  |  |  |  |  | 95 | 6500 pg/mL | 64 | neg | Toxic |  | Toxic | 3050 pg/mL | 95 | 4820 pg/mL | 100 | 2820 pg/mL | 88 | 1930 pg/mL | 60 |  |
| poly{oxy[2,2'-disulfo(1,1'-biphenyl)-4,4'-diyl]oxy-carbonyl-1,4-phenylenecarbonyl}- [Example 6] |  |  |  |  |  | 25 | 6800 pg/mL | 12 | neg | 0 | neg | 0 | neg | 0 | neg | 0 | neg | 0 | neg | 0 | SYNCYTIA Day 2 (HIV (Strain RF); 50 μg/ml): 0; SYNCYTIA Day 2 (HIV (Strain RF); 100 μg/ml): 0 |
| poly{oxy[2,2'-disulfo(1,1'-biphenyl)-4,4'-diyl]oxy-carbonyl}, alpha-[(4-methylphenoxy)carbonyl]-omega-(4-methylphenoxy)- [Example 5] |  |  |  |  |  | > 200 | 67 pg/mL | 68 | neg | 22 | neg | 14 | 3250 pg/mL | 100 | 2320 pg/mL | 73 | 2780 pg/mL | 87 | 1060 pg/mL | 33 | p24 3 days p.i. (HIV (Strain GB8); 200 μg/ml): neg |
